The values that follow come from US20070286867A1, “Combination Therapy” (Fusion Antibodies Limited, priority 2003, published 2007).

Series [1] has as its system Fas/CD95 mRNA. The series is described as follows: Real-time PCR of Fas/CD95 mRNA in HCT116 p53 null cells. It counts as cell-based, human. The note with it: IC60 72hrs doses, 24 and 48 hours. How it is done:
Real-time PCR was performed using a DNA Engine Opticon 2 (MJ Research Incorporated). TheDyNAmo SYBR Green qPCR kit (Finnzymes) was used as the fluoresent dye specific for double-stranded DNA. PCR conditions consisted of an initial denaturation step of 95° C. for 10 minutes, followed by 39 cycles of 94° C. for 10 secs, 55° C. for 20 secs and 72° C. for 20 secs, with a final extension of 72° C. for 10 minutes. A melting curve was included at the end of each run to check the specificity of the amplified product. Experiments were performed in triplicate to ensure reproducibility of the technique. On completion of the run the PCR products were run put on a 2% ethidium bromide agarose gel to confirm that their size matched that of the expected amplicon. Primer sequences were as follows: Fas (Forward) […], Fas (Reverse) […], 18S (Forward) […], 18S (Reverse) […].
(In general: Quantitative PCR measures a nucleic acid by following its amplification.)

The subject of series [2] is Fas. Nature of the series: Western blot of Fas expression in MCF-7 cells. The format is cell-based. The method, then: (§1) Western Blotting. Western blots were performed as previously described (6). The Fas/CD95, Bc1-2 and BID (Santa Cruz Biotechnology, Santa Cruz, Calif.), caspase 8 (Oncogene Research Products, Darmstadt, Germany), p53 (Santa Cruz Biotechnology), and PARP (Pharmingen, BD Biosciences, Oxford, England) mouse monoclonal antibodies were used in conjunction with a horseradish peroxidase (HRP)-conjugated sheep anti-mouse secondary antibody (Amersham, Little Chalfont, Buckinghamshire, England). FasL rabbit polyclonal antibody (Santa Cruz Biotechnology) was used in conjunction with an HRP-conjugated donkey anti-rabbit secondary antibody (Amersham). TS sheep monoclonal primary antibody (Rockland, Gilbertsville, Pa.) was used in conjunction with an HRP-conjugated donkey anti-sheep secondary antibody (Serotech, Oxford, England). Equal loading was assessed using a β-tubulin mouse monoclonal primary antibody (Sigma).
(In western blotting, separated proteins are transferred to a membrane and probed.)

The subject of series [3] is Fas. Nature of the series: Western blot of Fas expression in HCT116 p53 wild-type cells. The format is cell-based, human. The method, then: as §1
Series [4] relates to M7TS90-E6 cells. Nature of the series: Flow cytometry sub-G1/G0 apoptotic fraction, M7TS90-E6. Conditions: 96 hours after drug treatment; RTX 100 nM, MTA 1 μM, 5-FU 10 μM. It counts as cell-based. The method, then:
(§2) Where flow cytometric analysis was employed in Examples 1 to 5, the following protocol was used. Cells were seeded at 1×10^5 per well of a 6-well tissue culture plate. […] DNA content of harvested cells was evaluated after propidium iodide staining of cells using the EPICS XL Flow Cytometer (Coulter, Miami, Fla.). Where flow cytometric analysis was employed in Examples 6 to 12, the following protocol was used. Cells were seeded at 1×10^5 per well of a 6-well tissue culture plate. […] DNA content of harvested cells was evaluated after propidium iodide staining of cells using the EPICS XL Flow Cytometer (Coulter). A FITC-conjugated monoclonal anti-human Fas antibody (DAKO) was used to determine cell surface expression of the receptor. Cells were collected and washed twice in PBS before incubating in the antibody (1/20 dilution) at 4° C. for 30 mins. A non-reactive FITC-conjugated mouse IgG1 antibody was used as a negative control for each sample. Following incubation the cells were washed twice with PBS containing 2% bovine serum albumin and fixed in 0.3 mL 4% paraformaldehyde. Samples were then analysed on the EPICS XL Flow Cytometer (Coulter).
(A flow cytometer gives signals particle by particle.)

Series [5] has as its system Fas. The series is described as follows: Western blot of Fas expression in M7TS90-E6 cells. The format is cell-based. Conditions: 10 μM 5-FU, 100 nM RTX or 1 μM MTA. The method, then:
as §1

In series [6] the test system is FasL. Nature of the series: Western blot of FasL expression in MCF-7 cells. It counts as cell-based. The note with it: IC60 doses, 72 hours. The method, then: as §1
The test system of series [7] is procaspase 8, BID, PARP. Nature of the series: Western blot of procaspase 8, BID and PARP in MCF-7 cells. Conditions: 5 μM 5-FU or 25 nM RTX 72 hours; CH-11 250 ng/ml 24 hours. It counts as cell-based. The method, then:
as §1

The test system of series [8] is Fas. Nature of the series: Western blot of Fas expression in H630 cells. The format is cell-based. Conditions: range of concentrations, 48 hours. How it is done: as §1
The test system of series [9] is HCT116p53^+/+ cells. The series is described as follows: MTT cell viability assay in HCT116 p53 wild-type cells. The format is cell-based, human. The note with it: range of drug concentrations 24 hours, then CH-11 200 ng/ml for 48 hours.
Experimental: (§3) Cell Viability Assays. Cell viability was assessed by MTT (3-(4,5-dimethylthiazol-2-yl)-2,5-diphenyltetrazolium bromide, Sigma) assay (12). […] MTT (0.5 mg/ml) was then added to each well and the cells incubated at 37° C. for a further 3 hours. The culture medium was removed and formazan crystals reabsorbed in 200 μL DMSO. Cell viability was determined by reading the absorbance of each well at 570 nm using a 96-well microplate reader (Molecular Devices, Wokingham, England). […] Twenty microlitres (20 μL) MTT (5 mg/ml) was then added to each well and the cells incubated at 37° C. for a further 3 hours. The culture medium was removed and formazan crystals reabsorbed in 200 μL DMSO. Cell viability was determined by reading the absorbance of each well at 570 nm using an ELISA plate reader (Molecular Devices).
(§4) Statistical Analyses. The nature of the interaction between the chemotherapeutic drugs and CH-11 was determined by calculating the R index (RI), which was initially described by Kern and later modified by Romaneli (13, 14). […] Synergism is then defined as an RI of greater than unity. […] To further assess the statistical significance of the interactions, the inventors designed a univariate ANOVA analysis using the SPSS software package. This was an additive model based on the null hypothesis that there was no interaction between the drugs.
Series [10] concerns MCF-7 cells. Nature of the series: MTT cell viability assay in MCF-7 cells. It counts as cell-based.
Experimental: as §3, §4
Series [11] deals with Fas/CD95 receptor. Nature of the series: Flow cytometry of Fas/CD95 cell surface expression, HCT116 p53 wild-type. The format is cell-based, human. The note with it: 24 hours. The method, then: as §2
The test system of series [12] is Fas mRNA. Nature of the series: Northern blot of Fas mRNA in MCF-7 cells. It counts as cell-based. Conditions: 48 hours, 5 μM 5-FU. How it is done: Northern blot analysis. Northern blots were performed as described previously using a cDNA probe complementary to the Fas coding region (7). Equal loading was assessed using a P-tubulin cDNA probe.
Series [13] relates to HCT116p53^−/− cells. The series is described as follows: MTT cell viability assay in HCT116 p53 null cells. It counts as cell-based, human. The note with it: range of drug concentrations 24 hours, then CH-11 200 ng/ml for 48 hours.
Experimental: as §3, §4
In series [14] the test system is R175H p53 mutant cell line. The method, then:
Plasmids containing the p53 mutations R175H and R248W were kindly provided by Prof. G. Lozano (MD Anderson Cancer Center, Houston). […] Cells were seeded on p90 dishes in Optimem, (Invitrogen) supplemented with 10% FCS, at a density of 1×10^5 cells/dish. Transfection was carried out the following day when the monolayer was approximately 70% confluent. Cells were cotransfected with 1 μg pIRESpuro3 DNA and 20 μg pC53NN p53 mutant DNA using Genejuice Transfection reagent (Novagen, CA, USA) according to the manufacturer's instructions. Stably transfected cells were selected over approximately 14 days in medium containing […] puromycin. […] The DO-1 antibody binds to an N-terminal epitope between amino acid residues 11 and 25.
Cell Viability Assays. Cell viability was assessed by MTT (3-(4,5-dimethylthiazol-2-yl)-2,5-diphenyltetrazolium bromide, Sigma) assay (12). […] Cell viability was determined by reading the absorbance of each well at 570 nm using a 96-well microplate reader (Molecular Devices, Wokingham, England). […]
Statistical Analyses. The nature of the interaction between the chemotherapeutic drugs and CH-11 was determined by calculating the R index (RI), which was initially described by Kern and later modified by Romaneli (13, 14). […]

Series [15] has as its system MCF-7 cells. Nature of the series: Flow cytometry of propidium iodide stained cells, sub-G1/G0 apoptotic fraction, MCF-7. The format is cell-based. Conditions: 5 μM 5-FU alone 96 hours, or 72 hours followed by 250 ng/ml CH-11 24 hours. How it is done: as §2
Series [16] deals with Fas. The series is described as follows: Western blot of Fas expression in RKO cells. It counts as cell-based. Conditions: 48 hours post-treatment; MTA data not shown. The method, then: as §1
In series [17] the test system is Fas receptor. The series is described as follows: Fas/CD95 cell surface expression in p53 mutant H630 cell line (Example 11). It counts as cell-based. The note with it: 48 hours; 5-FU 5 μM, CPT-11 5 μM, Oxaliplatin 1 μM. The method, then: as §2

Structures are written as SMILES.

`O=c1[nH]cc(F)c(=O)[nH]1` [5-FU, 5-fluorouracil]: in [1], the “maximum induction of Fas mRNA” value amounted to 2 fold. In series [2] (72 hours, IC60 dose (5 μM 5-FU, 25 nM RTX)), this compound had a Fas protein up-regulation of approximately 12 fold. For the same compound, the “Fas expression” value is reported as “dramatic up-regulation” in series [2] (MTA data not shown, CH-11 alone 250 ng/ml, 5-FU alone 5 μM); “not significantly altered” in series [8]; “dramatic Fas up-regulation” in [16]. In series [3] (5-FU 5 μM, CPT-11 5 μM, Oxaliplatin 1 μM for 48 hours), the “induction of Fas/CD95 protein” value is listed as “significant induction”. For the same compound, the “up-regulation of Fas expression” value in series [3] (after 48 hours) is on record as more than 10 fold. For the same compound, in series [4], the “induction of apoptosis by drug alone” value is on record as “little apoptosis”. Also, in series [5], the “Fas up-regulation” value was “did not result in Fas up-regulation”. Also, the “FasL expression” value in [6] is listed as “unaffected”. The “activation of caspase 8 and BID (processing of procaspase 8 and full-length BID), words” value in series [7] is on record as “neither caspase 8, nor its substrate BID were activated”. The “interaction with CH-11 in MTT assay” value in series [9] is on record as “significant synergy”; in series [13], “only slight interaction”. Also, the cytotoxicity at 5 µM in series [10] (Homo sapiens, MCF7, read-out: decrease in cell viability compared to control) was approximately 60%. This compound also returned an IC60 dose in [10] (MCF-7) of 5 µM. Besides, the “induction of Fas/CD95 receptor cell surface expression” value in [11] is reported as “significantly induce expression”. In addition, the “Fas mRNA expression” value in series [12] is reported as “up-regulated”. For the same compound, the “synergistic cytotoxicity of combination with CH-11” value in [14] is listed as “synergistic cytotoxicity was demontsrated”. The “induction of apoptosis (sub-G1/G0 fraction)” value in series [15] is listed as approximately 2 fold. Moreover, in series [17], the “induction of the Fas receptor” value was “Neither 5-FU nor Oxaliplatin treatment for 48 hours caused significant upregulation”.
